# Source: ChEMBL document CHEMBL1833824, “Effects of cyclization on stability, structure, and activity of α-conotoxin RgIA at the α9α10 nicotinic acetylcholine receptor and GABA(B) receptor” (J Med Chem, 2011)
# Experiment: Activation of human alpha-9/rat alpha-10 nACHR expressed in Xenopus oocytes assessed as increase of acetylcholine-induced current
# Assay type: cell-based
# Conditions: Oocyte
structure (smiles),measurement,value
CC(=O)OCC[N+](C)(C)C [ACETYLCHOLINE],EC50,50 µM
